Laboratory results reported in patent US20120220577A1, “GLYCINE B ANTAGONISTS” (Merz Pharma GmbH & Co KgaA, priority 2009, published 2012).
Structures can show the parent of a compound that is named as a salt.

Key:
[1] = biological target: T1, glycine binding pocket of the NMDA receptor (Rattus norvegicus, UniProt P35439); experiment: [3H]MDL-105,519 displacement studies (rat cortical membranes); conditions: displacement of 2 nM [3H]-MDL-105,519, rat cortical membranes; read-out: NMDA-MDL 105519-r-CTX - IC50
T1 construct: For isolation of the cell membranes, the cortices are homogenized; from tissue; host or cells: rat cerebral cortex membranes (male Sprague-Dawley)

[2] = biological target: T2, NMDA receptor glycine B site (Rattus norvegicus, UniProt P35439); experiment: Calcium FLIPR studies, rat cortical neurons (NMDA/D-Serine induced intracellular calcium); type: cell-based; parameters: Primary neurons are prepared from cortices of embryonal rats at day 17 of pregnancy; endogenous in cells; host or cells: primary rat cortical neurons (E17, 11-13 DIV); conditions: rat cortical neurons; stimulation with 30 μM NMDA and 1 μM D-Serine; antagonist pre-incubated 10 min; read-out: NMDA-FLIPR-rCTX-NAM - IC50
Experimental: (§1) Antagonistic potencies of the test compounds are functionally evaluated using electrophysiological whole cell patch-clamp recordings and/or fluorometric intracellular Ca^2+-imaging (FLIPR) screens.
Sprague-Dawley rat embryos (E 17) are decapitated and neocortices are dissected, trypsinized and carefully triturated. The cell suspension is plated on poly-D-lysine pre-coated 96-well Plates (Greiner, Frickenhausen, Germany) at a cell density of 55.000 cells/well. The neurons are cultivated in Neurobasal media containing B27-Supplement and […] L-Glutamine (Biochrom) at 37° C. in a humidified atmosphere of 5% CO2/95% air. Medium is exchanged completely at day 4 and to 50% on day 7. At the time of experiments neurons are 11-13 days in vitro.
The increase of intracellular calcium after stimulation with 30 μM NMDA and 1 μM D-Serine is measured using the fluorometric imaging plate reader (FLIPR) and the Calcium-4-Kit (both Molecular Devices, Ismaning, Germany). Prior to addition of agonist or antagonist (5 different concentrations, n=5) the medium is aspirated and cells are washed once before loading with 150 μL of loading buffer (1 h at room temperature), consisting of Ca-4 sensitive dye reconstituted in extracellular bath solution, pH 7.3. Subsequently, plates are transferred to FLIPR to detect increases in intracellular calcium after the addition of agonist, measured as relative fluorescence units (RFU). Antagonists are pre-incubated with the cells for 10 min at room temperature before the addition of the agonist and co-agonist.
The fluorescence signal increase after addition of agonist reflects the increase of intracellular calcium. Inconsistencies in the amount of cells per well are normalised by using the spatial uniformity correction of the FLIPR software (Screenworks, Molecular Devices). The mean of replicated temporal data (n=5) is calculated and used for graphical representation. For the evaluation of the antagonistic potency, the calcium changes in response to different concentrations of antagonist are determined using an area under the curve (AUC) calculation. All responses (RFU-values) are determined as percentage of control (=maximum response at 30 μM NMDA and 1 μM D-Serine). IC50 values are calculated according the four parameter logistic equation using GraFit (Erithacus Software).

[3] = biological target: T2, NMDA receptor glycine B site; experiment: Whole cell patch-clamp recordings, rat hippocampal neurons (NMDA/D-Serine currents); type: cell-based; conditions: NMDA 200 μM + D-Serine 1 μM, -70 mV, read-out: NMDA-PC-r-HIC-NAM - IC50
Experimental: as §1
Cell preparation is performed as described by Parsons, et al. (Neuropharmacology, 1998, 37(6), 719-727). The female Sprague-Dawley rat is anaesthetised by placing in a saturated CO2-euthanasia chamber under further quiet CO2-influx. Under these conditions the rat loses consciousness after a few seconds and is then sacrificed by cervical dislocation. After opening the abdominal cavity, embryos (E20) are removed and stored in ice cold Ca^2+- and Mg^2+-free Hank's Buffered Salt Solution (pH 7.3), containing 4 g/l glucose (HBSS-CMF). Hippocampi are then isolated from the brains of at least 8 embryos after decapitation, transferred into ice cold HBSS-CMF and washed 3 to 4 times.
Hippocampi are pre-incubated for 8 min with a 0.66% trypsin (Sigma-Aldrich) and 0.1% (20 U/ml) DNAase solution (Sigma-Aldrich) in Ca^2+-free Phosphate Buffered Saline (PBS-CF) and washed 3 times with HBSS-CMF. Cells are then mechanically dissociated by trituration in a PBS-CF solution containing 0.05% (10 U/ml) DNAase and 0.3% of the trypsin inhibitor ovomucoid (all from Sigma-Aldrich). The cells are then centrifuged at 180×g for 10 minutes, and the cell pellet re-suspended in basal Minimum essential medium (MEM, Invitrogen, Karlsruhe, Germany), again carefully triturated to ensure maximal dissociation and finally plated in the flexiPERM inserts (Thermo Fisher Scientific, Langenselbold, Germany) at a density of 15×10^3 cells/cm^2 (0.5 ml/insert) onto poly-DL-ornithine (Sigma) and mouse laminin (Invitrogen) pre-coated plastic petri dishes. After 1 hour the cells become attached to the bottom of the dish and the inserts may be removed. The cells are then nourished with 2 ml MEM supplemented with 5% foetal calf serum (FCS) and 5% horse serum and incubated at 37° C. with 95% air and 5% CO2 at 95% humidity. After 4 days in vitro (DIV) further glial mitosis is inhibited by adding 10 μl of AraC (5 μM endconcentration). The medium is completely exchanged after an additional 2 DIV and again, but only partly (50%), after 8 DIV. The cells are used for electrophysiological recordings after 11-15 DIV.
Cells are visualised using an inverted microscope and selected for patching based upon their position and morphology. Voltage clamp recordings are made in the whole cell configuration of the patch clamp technique at a holding potential of −70 mV with the aid of an EPC-10 amplifier in combination with pipette manipulator. Patch clamp pipettes are pulled from borosilicate glass using a horizontal puller (P-97 Puller, Sutter Instruments, USA) and, when filled with intracellular solution, have resistances of 1-4 MΩ.
Solutions are delivered via a home-made gravity driven very fast perfusion system (<10 ms) including valves to switch flow on and off in combination with a stepper motor-driven double-barrelled theta glass application pipette in order to expose cells to either agonist-free or agonist-containing solutions in presence or absence of antagonist.
The intracellular solution used consists of: 120 mM CsCl, 10 mM EGTA, 1 mM MgCl2, 200 μM CaCl2, 10 mM glucose and 22 mM tetraethyl ammonium chloride (TEA-CL). The corresponding extracellular bath solution contains: 140 mM NaCl, 3 mM KCl, 10 mM glucose, 10 mM HEPES, 1.5 mM CaCl2 and 4.5 mM sucrose (all from Sigma-Aldrich) pH 7.3, and is supplemented with 0.3 μM tetrodotoxin (TTX, Tocris, Bristol, U.K.) to block voltage-activated sodium channels and 0.25 μM bicuculline (Sigma-Aldrich) to block GABAA receptors. […]

| melting point | IC50 [1] | IC50 [2] | IC50 [3] | SMILES |
| --- | --- | --- | --- | --- |
| > 250 °C | 284 nM | – | – | NC(=O)c1cccc(NC(=O)COc2cc(C(=O)O)cc3cc(Cl)cc(Cl)c23)c1 [Example 113, 4-[(3-Carbamoyl-phenylcarbamoyl)-methoxy]-5,7-dichloro-naphthalene-2-carboxylic acid] |
| > 220 °C (dec.) | 252 nM | 1320 nM | – | O=C(O)COc1ccc(NC(=O)COc2cc(C(=O)O)cc3cc(Cl)cc(Cl)c23)c(OCC(=O)O)c1 [Example 83, 4-[(2,4-Bis-carboxymethoxy-phenylcarbamoyl)-methoxy]-5,7-dichloro-naphthalene-2-carboxylic acid] |
| – | 1850 nM | – | 287 nM | O=C(COc1cc(C(=O)O)cc2cc(Cl)cc(Cl)c12)Nc1ccc(O)cc1 [Example 8, 5,7-Dichloro-4-[(4-hydroxyphenylcarbamoyl)-methoxy]-naphthalene-2-carboxylic acid] |
| 247 to 248 °C | 233 nM | 930 nM | – | O=C(COc1cc(C(=O)O)cc2cc(Cl)cc(Cl)c12)Nc1ccccc1-c1nnn[nH]1 [Example 85, 5,7-Dichloro-4-{[2-(1H-tetrazol-5-yl)-phenylcarbamoyl]-methoxy}-naphthalene-2-carboxylic acid] |
| > 230 °C (dec.) | 393 nM | 5820 nM | – | O=C(O)CCc1cccc(NC(=O)COc2cc(C(=O)O)cc3cc(Cl)cc(Cl)c23)c1 [Example 96, 4-{[3-(2-Carboxy-ethyl)-phenylcarbamoyl]-methoxy}-5,7-dichloro-naphthalene-2-carboxylic acid] |
| > 240 °C (dec.) | 430 nM | 8550 nM | – | O=C(COc1cc(C(=O)O)cc2cc(Cl)cc(Cl)c12)NCc1ccccn1 [Example 103, 5,7-Dichloro-4-{[(pyridin-2-ylmethyl)-carbamoyl]-methoxy}-naphthalene-2-carboxylic acid] |
| 185 to 187 °C (dec.) | 150 nM | 1050 nM | – | O=C(O)COc1ccc(CO)cc1NC(=O)COc1cc(C(=O)O)cc2cc(Cl)cc(Cl)c12 [Example 94, 4-[(2-Carboxymethoxy-5-hydroxymethyl-phenylcarbamoyl)-methoxy]-5,7-dichloro-naphthalene-2-carboxylic acid] |
| 246 to 247 °C | – | – | – | N#CCc1ccccc1NC(=O)COc1cc(C(=O)O)cc2cc(Cl)cc(Cl)c12 [Example 137, 5,7-Dichloro-4-[(2-cyanomethyl-phenylcarbamoyl)-methoxy]-naphthalene-2-carboxylic acid] |
| 246 to 247 °C | 1370 nM | – | – | O=C(COc1cc(C(=O)O)cc2cc(Cl)cc(Cl)c12)Nc1cccc(OCc2nnn[nH]2)c1OCc1nnn[nH]1 [Example 128, 4-{[2,3-Bis-(1H-tetrazol-5-ylmethoxy)-phenylcarbamoyl]-methoxy}-5,7-dichloro-naphthalene-2-carboxylic acid] |
| > 169 °C | – | – | – | NCc1cc(OCC(=O)O)ccc1NC(=O)COc1cc(C(=O)O)cc2cc(Cl)cc(Cl)c12 (as salt: trifluoroacetate) [Example 97, 4-[(2-Aminomethyl-4-carboxymethoxy-phenylcarbamoyl)-methoxy]-5,7-dichloro-naphthalene-2-carboxylic acid] |
| > 250 °C | 440 nM | – | – | N#Cc1ccccc1NC(=O)COc1cc(C(=O)O)cc2cc(Cl)cc(Cl)c12 [Example 82, 5,7-Dichloro-4-[(2-cyano-phenylcarbamoyl)-methoxy]-naphthalene-2-carboxylic acid] |
| 224 to 225 °C | – | – | – | COCC(Oc1cc(C(=O)O)cc2cc(Cl)cc(Cl)c12)C(=O)Nc1ccccc1OCC(=O)O (stereo not shown) [Example 131, 4-[1-(2-Carboxymethoxy-phenylcarbamoyl)-2-methoxy-ethoxy]-5,7-dichloro-naphthalene-2-carboxylic acid] |
| – | 218 nM | – | 87 nM | O=C(COc1cc(C(=O)O)cc2cc(Cl)cc(Cl)c12)Nc1cccc(OCC(=O)N2CCOCC2)c1 [Example 47, 5,7-Dichloro-4-{[3-(2-morpholin-4-yl-2-oxo-ethoxy)-phenylcarbamoyl]-methoxy}-naphthalene-2-carboxylic acid] |
